Data taken from US10519152B2, “Compounds and their use in treating cancer” (AstraZeneca AB, priority 2017, dated 2019).

Target: T1, Estrogen Receptor (ERα) in MCF-7 human ductal carcinoma breast cell line (Homo sapiens, UniProt P03372)
T1 construct: endogenous in cells; host or cells: MCF-7
T1 sequence (P03372 1-595): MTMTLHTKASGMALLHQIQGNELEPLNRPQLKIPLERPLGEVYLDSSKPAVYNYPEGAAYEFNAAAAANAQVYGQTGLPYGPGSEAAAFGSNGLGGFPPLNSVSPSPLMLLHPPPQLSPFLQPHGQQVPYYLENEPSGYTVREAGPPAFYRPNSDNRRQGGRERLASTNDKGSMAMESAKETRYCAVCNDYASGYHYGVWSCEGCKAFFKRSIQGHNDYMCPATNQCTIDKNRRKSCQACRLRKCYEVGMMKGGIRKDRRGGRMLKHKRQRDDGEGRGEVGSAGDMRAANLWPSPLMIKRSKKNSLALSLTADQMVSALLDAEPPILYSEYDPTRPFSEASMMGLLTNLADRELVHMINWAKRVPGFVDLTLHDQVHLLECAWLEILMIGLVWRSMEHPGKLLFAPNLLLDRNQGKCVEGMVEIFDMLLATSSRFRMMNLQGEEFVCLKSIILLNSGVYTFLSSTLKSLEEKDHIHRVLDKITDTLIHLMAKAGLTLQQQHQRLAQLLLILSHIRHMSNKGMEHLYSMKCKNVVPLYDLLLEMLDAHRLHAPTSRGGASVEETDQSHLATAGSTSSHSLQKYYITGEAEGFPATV
Assay: MCF-7 ER degradation assay (cell based immuno-fluorescence)
Conditions: MCF-7 cells; for ER degradation ≥ 90% at 0.3 μM: ER degradation by fulvestrant at 0.3 μM is defined as 100%; for DC50: 18-22 hours incubation, 50% reduction of ERα expression, single experiment or average of two or more, read-out: MCF-7 ER degradation IC50
Description: MCF-7 ER Degradation Assay
The ability of compounds to down-regulate Estrogen Receptor (ER) numbers was assessed in a cell based immuno-fluorescence assay using the MCF-7 human ductal carcinoma breast cell line. MCF-7 cells were revived directly from a cryovial (approx 5×10^6 cells) in Assay Medium (phenol red free Dulbecco's Modified Eagle's medium (DMEM); Sigma D5921) containing 2 mM L-Glutamine and 5% (v/v) Charcoal/Dextran treated foetal calf serum. Cells were syringed once using a sterile 18 G×1.5 inch (1.2×40 mm) broad gauge needle and cell density was measured using a Coulter Counter (Beckman). Cells were further diluted in Assay Medium to a density of 3.75×10^4 cells per mL and 40 μL per well added to transparent bottomed, black, tissue culture-treated 384 well plates (Costar, No. 3712) using a Thermo Scientific Matrix WellMate or Thermo Multidrop. Following cell seeding, plates were incubated overnight at 37° C., 5% CO2 (Liconic carousel incubator). Test data was generated using the LabCyte Echo™ model 555 compound reformatter which is part of an automated workcell (Integrated Echo 2 workcell). Compound stock solutions (10 mM) of the test compounds were used to generate a 384 well compound dosing plate (Labcyte P-05525-CV1). 40 μL of each of the 10 mM compound stock solutions was dispensed into the first quadrant well and then 1:100 step-wise serial dilutions in DMSO were performed using a Hydra II (MATRIX UK) liquid handling unit to give 40 μL of diluted compound into quadrant wells 2 (0.1 mM), 3 (1 μM) and 4 (0.01 μM), respectively. 40 μL of DMSO added to wells in row P on the source plate allowed for DMSO normalisation across the dose range. To dose the control wells 40 μL of DMSO was added to row O1 and 40 μL of 100 μM fulvestrant in DMSO was added to row O3 on the compound source plate.
The Echo uses acoustic technology to perform direct microplate-to-microplate transfers of DMSO compound solutions to assay plates. The system can be programmed to transfer volumes as low as 2.5 nL in multiple increments between microplates and in so doing generates a serial dilution of compound in the assay plate which is then back-filled to normalise the DMSO concentration across the dilution range. Compounds were dispensed onto the cell plates with a compound source plate prepared as above producing a 12 point duplicate […] dose range with 3-fold dilutions and one final 10-fold dilution using the Integrated Echo 2 workcell. The maximum signal control wells were dosed with DMSO to give a final concentration of 0.3%, and the minimum signal control wells were dosed with fulvestrant to give a final concentration of 100 nM accordingly. Plates were further incubated for 18-22 hours at 37° C., 5% CO2 and then fixed by the addition of 20 μL of 11.1% (v/v) formaldehyde solution (in phosphate buffered saline (PBS)) giving a final formaldehyde concentration of 3.7% (v/v). Cells were fixed at room temperature for 20 mins before being washed two times with 250 μL PBS/Proclin (PBS with a Biocide preservative) using a BioTek platewasher, 40 μL of PBS/Proclin was then added to all wells and the plates stored at 4° C. The fixing method described above was carried out on the Integrated Echo 2 workcell. Immunostaining was performed using an automated AutoElisa workcell. The PBS/Proclin was aspirated from all wells and the cells permeabilised with 40 μL PBS containing 0.5% Tween™ 20 (v/v) for 1 hour at room temperature. The plates were washed three times in 250 μL of PBS/0.05% (v/v) Tween 20 with Proclin (PBST with a Biocide preservative) and then 20 μL of ERα (SP1) Rabbit monoclonal antibody (Thermofisher) 1:1000 in PBS/Tween™/3% (w/v) Bovine Serum Albumin was added. The plates were incubated overnight at 4° C. (Liconic carousel incubator) and then washed three times in 250 μL of PBS/0.05% (v/v) Tween™ 20 with Proclin (PBST). […]

Row | SMILES | ER degradation ≥ 90% at 0.3 μM | DC50 [nM]
1 | Cc1ncsc1-c1ccc(CNC(=O)[C@@H]2C[C@@H](O)CN2C(=O)[C@@H](NC(=O)COC[C@@H]2CC2COCCOc2cc(F)c([C@@H]3c4[nH]c5ccccc5c4C[C@@H](C)N3CC(C)(C)F)c(F)c2)C(C)(C)C)cc1 (single isomer, unassigned) [Example 123, (2S,4R)-1-[(2S)-2-[[2-[[(1R*2S*)-2-[2-[3,5-Difluoro-4-[(R,3R)-2-(2-fluoro-2-methyl-propyl)-3-methyl-1,3,4,9-tetrahydropyrido[3,4-b]indol-1-yl]phenoxy]ethoxymethyl]cyclopropyl]methoxy]acetyl]amino]-3,3-dimethyl-butanoyl]-4-hydroxy-N-[[4-(4-methylthiazol-5-yl)phenyl]methyl]pyrrolidine-2-carboxamide] | • | 0.5
2 | Cc1ncsc1-c1ccc(CNC(=O)[C@@H]2C[C@@H](O)CN2C(=O)[C@@H](NC(=O)COCc2ccc(COc3cc(F)c([C@@H]4c5[nH]c6ccccc6c5C[C@@H](C)N4CC(C)(C)F)c(F)c3)cc2)C(C)(C)C)cc1 [Example 19, (2S,4R)-1-((S)-2-(2-((4-((3,5-difluoro-4-((1R,3R)-2-(2-fluoro-2-methylpropyl)-3-methyl-2,3,4,9-tetrahydro-1H-pyrido[3,4-b]indol-1-yl)phenoxy)methyl)benzyl)oxy)acetamido)-3,3-dimethylbutanoyl)-4-hydroxy-N-(4-(4-methylthiazol-5-yl)benzyl)pyrrolidine-2-carboxamide] | •• | 3.2
3 | Cc1ncsc1-c1ccc(CNC(=O)[C@@H]2C[C@@H](O)CN2C(=O)[C@@H](NC(=O)CCCCCCNC(=O)/C=C/c2cc(F)c([C@@H]3c4[nH]c5ccccc5c4C[C@@H](C)N3CC(C)(C)F)c(F)c2)C(C)(C)C)cc1 [Example 59, (2S,4R)-1-((S)-2-(7-((E)-3-(3,5-difluoro-4-((1R,3R)-2-(2-fluoro-2-methylpropyl)-3-methyl-2,3,4,9-tetrahydro-1H-pyrido[3,4-b]indol-1-yl)phenyl)acrylamido)heptanamido)-3,3-dimethylbutanoyl)-4-hydroxy-N-(4-(4-methylthiazol-5-yl)benzyl)pyrrolidine-2-carboxamide, Trifluoroacetic Acid] | •• | 0.8
4 | Cc1ncsc1-c1ccc(CNC(=O)[C@@H]2C[C@@H](O)CN2C(=O)[C@@H](NC(=O)C2(OCCCOCCCOc3cc(F)c([C@@H]4c5[nH]c6ccccc6c5C[C@@H](C)N4CC(C)(C)F)c(F)c3)CC2)C(C)(C)C)cc1 [Example 135, (2S,4R)-1-((S)-2-(1-(3-(3-(3,5-Difluoro-4-((1R,3R)-2-(2-fluoro-2-methylpropyl)-3-methyl-2,3,4,9-tetrahydro-1H-pyrido[3,4-b]indol-1-yl)phenoxy)propoxy)propoxy)cyclopropane-1-carboxamido)-3,3-dimethylbutanoyl)-4-hydroxy-N-(4-(4-methylthiazol-5-yl)benzyl)pyrrolidine-2-carboxamide] | • | 

Results, then the compound that gave them:

Row | ER degradation ≥ 90% at 0.3 μM | DC50 [nM] | SMILES
5 | • | 0.8 | Cc1ncsc1-c1ccc(CNC(=O)[C@@H]2C[C@@H](O)CN2C(=O)[C@@H](NC(=O)COC[C@@H]2CC2COCCOc2cc(F)c([C@@H]3c4[nH]c5ccccc5c4C[C@@H](C)N3CC(C)(C)F)c(F)c2)C(C)(C)C)cc1 (single isomer, unassigned) [Example 124, (2S,4R)-1-[(2S)-2-[[2-[[(1R*2S*)-2-[2-[3,5-Difluoro-4-[(1R,3R)-2-(2-fluoro-2-methyl-propyl)-3-methyl-1,3,4,9-tetrahydropyrido[3,4-b]indol-1-yl]phenoxy]ethoxymethyl]cyclopropyl]methoxy]acetyl]amino]-3,3-dimethyl-butanoyl]-4-hydroxy-N-[[4-(4-methylthiazol-5-yl)phenyl]methyl]pyrrolidine-2-carboxamide]
6 | • | 1.8 | Cc1ncsc1-c1ccc(CNC(=O)[C@@H]2C[C@@H](O)CN2C(=O)[C@@H](NC(=O)COCC(F)(F)COCCCCCOc2cc(F)c([C@@H]3c4[nH]c5ccccc5c4C[C@@H](C)N3CC(C)(C)F)c(F)c2)C(C)(C)C)cc1 [Example 126, (2S,4R)-1-((S)-2-(2-(3-((5-(3,5-Difluoro-4-((1R,3R)-2-(2-fluoro-2-methylpropyl)-3-methyl-2,3,4,9-tetrahydro-1H-pyrido[3,4-b]indol-1-yl)phenoxy)pentyl)oxy)-2,2-difluoropropoxy)acetamido)-3,3-dimethylbutanoyl)-4-hydroxy-N-(4-(4-methylthiazol-5-yl)benzyl)pyrrolidine-2-carboxamide]
